# What was measured:
# [1] = system: Armyworm (Mythimna separata (Walker)); experiment: Test against armyworm, Potter tower method; assay type: in vivo; conditions: for mortality at 12.5 µg/mL / mortality at 50 µg/mL / mortality at 500 µg/mL: Mythimna separata, third-instar larvae, after 72 hours, read-out: Activity (mortality) level against armyworm; for mortality at 12.5 µg/mL: 12.5 mg/L; for mortality at 50 µg/mL: 50 mg/L; for mortality at 500 µg/mL: 500 mg/L; for Activity against armyworm, further screening (in words): compared with chlorantraniliprole (D1)
# Experimental: Potter tower method: the test compound was dissolved in an appropriate solvent such as N,N-dimethylformamide, and then diluted with 0.2% aqueous solution of Tween 80 to the desired concentration, Those without the test compounds were set as blank controls. The fresh and tender corn leaves were taken and cut into fragments of basically the same size, then put into a Petri dish (diameter 90 mm) padded with filter paper in advance. Ten third-instar larvae of test insects were transferred into the dish and then placed under the Potter spray tower for being sprayed, each concentration treatment was sprayed at the amount of 1 mL and replicated 3 times. The dish was covered and then placed in a chamber for culture and observed regularly, after 72 hours, the dead insects was investigated and recorded and the mean mortality was calculated. […]
# Aphis fabae = experiment: Test against aphid, leaf dip method (Aphis fabae); assay type: in vivo; conditions: foliar; for mortality at 12.5 µg/mL: 12.5 mg/L; for mortality at 12.5 µg/mL / mortality at 50 µg/mL / mortality at 200 µg/mL / mortality at 500 µg/mL: after 24 hours, read-out: Activity (mortality) level against Aphis fabae; for mortality at 50 µg/mL: 50 mg/L; for mortality at 200 µg/mL: 200 mg/L; for mortality at 500 µg/mL: 500 mg/L
# Experimental: For evaluating the activity of the compounds of this invention against Homoptera pests, Aphis fabae, wheat aphids, etc. were selected as the test insects, and the activity of the compounds of this invention against aphids was measured by leaf dip method indoors.
# Leaf dip method (Aphis fabae): the test compound was dissolved in an appropriate solvent such as N,N-dimethylformamide, and then diluted with 0.2% aqueous solution of Tween 80 to the desired concentration, Those without the test compounds were set as blank controls, the treatments were replicated 3 times. Horsebean seedlings with no less than twenty 3-day-old Aphis fabae per plant was cut from the stem, 5 horsebean seedlings with the insects were dipped in the test solution for 5 seconds, then inserted into a sponge filled with water after sucked dry using filter paper, then covered with a glass tube and placed in a chamber for culture. After 24 hours, the number of living and dead insects were investigated and the results were averaged. […]
Structure (SMILES),mortality at 12.5 µg/mL [1],mortality at 50 µg/mL [1],mortality at 500 µg/mL [1],mortality at 12.5 µg/mL (Aphis fabae),mortality at 50 µg/mL (Aphis fabae),mortality at 200 µg/mL (Aphis fabae),mortality at 500 µg/mL (Aphis fabae),"Activity against armyworm, further screening (in words) [1]",LC50 (Aphis fabae; read-out: LC50 against Aphis fabae)
"CCCNC(=O)c1cc(Cl)cc(Cl)c1N(C)C(=O)c1cc(Br)nn1-c1ncccc1Cl [Compound 3, N-[2,4-dichloro-6-[(propylamino)carbonyl]phenyl]-N-methyl-1-(3-chloro-2-pyridinyl)-3-bromo-1H-pyrazole-5-carboxamide]",90 to 100%,90 to 100%,90 to 100%,90 to 100%,90 to 100%,90 to 100%,90 to 100%,,
"CC(C)NC(=O)c1cc(Cl)cc(Cl)c1N(C)C(=O)c1cc(Br)nn1-c1ncccc1Cl [Compound 5, N-[2,4-dichloro-6-[(isopropylamino)carbonyl]phenyl]-N-methyl-1-(3-chloro-2-pyridinyl)-3-bromo-1H-pyrazole-5-carboxamide]",90 to 100%,90 to 100%,90 to 100%,90 to 100%,90 to 100%,90 to 100%,90 to 100%,excellent activity,
"CN(C(=O)c1cc(Br)nn1-c1ncccc1Cl)c1c(Cl)cc(Cl)cc1C(=O)NC1CC1 [Compound 6, N-[2,4-dichloro-6-[(cyclopropylamino)carbonyl]phenyl]-N-methyl-1-(3-chloro-2-pyridinyl)-3-bromo-1H-pyrazole-5-carboxamide]",90 to 100%,90 to 100%,90 to 100%,90 to 100%,90 to 100%,90 to 100%,90 to 100%,,
"CCCCNC(=O)c1cc(Cl)cc(Cl)c1N(C)C(=O)c1cc(Br)nn1-c1ncccc1Cl [Compound 7, N-[2,4-dichloro-6-[(butylamino)carbonyl]phenyl]-N-methyl-1-(3-chloro-2-pyridinyl)-3-bromo-1H-pyrazole-5-carboxamide]",,90 to 100%,90 to 100%,,90 to 100%,90 to 100%,90 to 100%,,
"CC(C)N(C)C(=O)c1cc(Cl)cc(Cl)c1N(C)C(=O)c1cc(Br)nn1-c1ncccc1Cl [Compound 13, N-[2,4-dichloro-6-[(methyl(isopropyl)amino)carbonyl]phenyl]-N-methyl-1-(3-chloro-2-pyridinyl)-3-bromo-1H-pyrazole-5-carboxamide]",,90 to 100%,90 to 100%,90 to 100%,90 to 100%,90 to 100%,90 to 100%,,
"CN(C(=O)c1cc(Br)nn1-c1ncccc1Cl)c1c(Cl)cc(Cl)cc1C(=O)N(C)C1CC1 [Compound 14, N-[2,4-dichloro-6-[(methyl(cyclopropyl)amino)carbonyl]phenyl]-N-methyl-1-(3-chloro-2-pyridinyl)-3-bromo-1H-pyrazole-5-carboxamide]",90 to 100%,90 to 100%,90 to 100%,90 to 100%,90 to 100%,90 to 100%,90 to 100%,excellent activity,
"CCCN(CCC)C(=O)c1cc(Cl)cc(Cl)c1N(C)C(=O)c1cc(Br)nn1-c1ncccc1Cl [Compound 16, N-[2,4-dichloro-6-[(dipropylamino)carbonyl]phenyl]-N-methyl-1-(3-chloro-2-pyridinyl)-3-bromo-1H-pyrazole-5-carboxamide]",,90 to 100%,90 to 100%,90 to 100%,90 to 100%,90 to 100%,90 to 100%,,
"CCN(C(=O)c1cc(Br)nn1-c1ncccc1Cl)c1c(Cl)cc(Cl)cc1C(=O)N(C)C [Compound 17, N-[2,4-dichloro-6-[(dimethylamino)carbonyl]phenyl]-N-ethyl-1-(3-chloro-2-pyridinyl)-3-bromo-1H-pyrazole-5-carboxamide]",90 to 100%,90 to 100%,90 to 100%,90 to 100%,90 to 100%,90 to 100%,90 to 100%,,
"CCN(C)C(=O)c1cc(Cl)cc(Cl)c1N(CC)C(=O)c1cc(Br)nn1-c1ncccc1Cl [Compound 18, N-[2,4-dichloro-6-[(methyl(ethyl)amino)carbonyl]phenyl]-N-ethyl-1-(3-chloro-2-pyridinyl)-3-bromo-1H-pyrazole-5-carboxamide]",,90 to 100%,90 to 100%,90 to 100%,90 to 100%,90 to 100%,90 to 100%,,
"CCCN(C(=O)c1cc(Br)nn1-c1ncccc1Cl)c1c(Cl)cc(Cl)cc1C(=O)N(C)C [Compound 19, N-[2,4-dichloro-6-[(dimethylamino)carbonyl]phenyl]-N-propyl-1-(3-chloro-2-pyridinyl)-3-bromo-1H-pyrazole-5-carboxamide]",,90 to 100%,90 to 100%,90 to 100%,90 to 100%,90 to 100%,90 to 100%,,
"CCCN(C)C(=O)c1cc(Cl)cc(Cl)c1N(CCC)C(=O)c1cc(Br)nn1-c1ncccc1Cl [Compound 20, N-[2,4-dichloro-6-[(methyl(propyl)amino)carbonyl]phenyl]-N-propyl-1-(3-chloro-2-pyridinyl)-3-bromo-1H-pyrazole-5-carboxamide]",,90 to 100%,90 to 100%,,,90 to 100%,90 to 100%,,
"CN(C)C(=S)c1cc(Cl)cc(Cl)c1N(C)C(=O)c1cc(Br)nn1-c1ncccc1Cl [Compound 21, N-[2,4-dichloro-6-[(dimethylamino)thioxomethyl]phenyl]-N-methyl-1-(3-chloro-2-pyridinyl)-3-bromo-1H-pyrazole-5-carboxamide]",,90 to 100%,90 to 100%,90 to 100%,90 to 100%,90 to 100%,90 to 100%,,
"CC(C)N(C)C(=S)c1cc(Cl)cc(Cl)c1N(C)C(=O)c1cc(Br)nn1-c1ncccc1Cl [Compound 22, N-[2,4-dichloro-6-[(methyl(isopropyl)amino)thioxomethyl]phenyl]-N-methyl-1-(3-chloro-2-pyridinyl)-3-bromo-1H-pyrazole-5-carboxamide]",90 to 100%,90 to 100%,90 to 100%,90 to 100%,90 to 100%,90 to 100%,90 to 100%,,
"CCN(CC)C(=S)c1cc(Cl)cc(Cl)c1N(C)C(=O)c1cc(Br)nn1-c1ncccc1Cl [Compound 23, N-[2,4-dichloro-6-[(diethylamino)thioxomethyl]phenyl]-N-methyl-1-(3-chloro-2-pyridinyl)-3-bromo-1H-pyrazole-5-carboxamide]",90 to 100%,90 to 100%,90 to 100%,,,90 to 100%,90 to 100%,,
"CCN(CC)C(=S)c1cc(Cl)cc(Cl)c1N(C)C(=S)c1cc(Br)nn1-c1ncccc1Cl [Compound 24, N-[2,4-dichloro-6-[(diethylamino)thioxomethyl]phenyl]-N-methyl-1-(3-chloro-2-pyridinyl)-3-bromo-1H-pyrazole-5-carbothioamide]",,90 to 100%,90 to 100%,,,90 to 100%,90 to 100%,,
"CNC(=O)c1cc(Cl)cc(Br)c1N(C)C(=O)c1cc(Br)nn1-c1ncccc1Cl [Compound 25, N-[2-bromo-4-chloro-6-[(methylamino)carbonyl]phenyl]-N-methyl-1-(3-chloro-2-pyridinyl)-3-bromo-1H-pyrazole-5-carboxamide]",90 to 100%,90 to 100%,90 to 100%,90 to 100%,90 to 100%,90 to 100%,90 to 100%,,
"CCNC(=O)c1cc(Cl)cc(Br)c1N(C)C(=O)c1cc(Br)nn1-c1ncccc1Cl [Compound 26, N-[2-bromo-4-chloro-6-[(ethylamino)carbonyl]phenyl]-N-methyl-1-(3-chloro-2-pyridinyl)-3-bromo-1H-pyrazole-5-carboxamide]",90 to 100%,90 to 100%,90 to 100%,90 to 100%,90 to 100%,90 to 100%,90 to 100%,,
"O=[N+]([O-])/N=C1\NCCN1Cc1ccc(Cl)nc1 [imidacloprid, reference compound]",,,,,,,,,< 1 µg/mL

# From patent US20220132846A1, “1-PYRIDYL-PYRAZOLYL AMIDE COMPOUNDS AND PREPARATION AND USES THEREOF” (HUNAN RESEARCH INSTITUTE OF CHEMICAL INDUSTRY CO., LTD., priority 2019, published 2022)
